According to the NIST ThermoML archive (doi:10.1021/je050065n):
± gives the expanded uncertainty stated by the source.

Key:
[1] = Molar enthalpy of transition or fusion; conditions: Crystal
[2] = Crystal
[3] = molar heat capacity at constant pressure; conditions: 101.33 kPa

## CCCCCCCCCCCCC(=O)OCC [ethyl tridecanoate]
[1]
  Molar enthalpy of transition or fusion: 9.728 ± 0.0717 kcal/mol
[2]
  Triple point temperature: 272.4 ± 0.3 K
[3]; 203.72 K, Crystal
  molar heat capacity at constant pressure: 303.18 ± 4 J/K/mol
[3]; 204.3 K, Crystal
  molar heat capacity at constant pressure: 304.48 ± 4 J/K/mol
[3]; 206.07 K, Crystal
  molar heat capacity at constant pressure: 306.99 ± 4.1 J/K/mol
[3]; 209.03 K, Crystal
  molar heat capacity at constant pressure: 310.71 ± 4.1 J/K/mol
[3]; 211.98 K, Crystal
  molar heat capacity at constant pressure: 314.26 ± 4.1 J/K/mol
[3]; 214.92 K, Crystal
  molar heat capacity at constant pressure: 318.07 ± 4.1 J/K/mol
[3]; 217.87 K, Crystal
  molar heat capacity at constant pressure: 321.89 ± 4.2 J/K/mol
[3]; 220.82 K, Crystal
  molar heat capacity at constant pressure: 325.88 ± 4.2 J/K/mol
[3]; 226.72 K, Crystal
  molar heat capacity at constant pressure: 334 ± 4.3 J/K/mol
[3]; 229.65 K, Crystal
  molar heat capacity at constant pressure: 338.41 ± 4.3 J/K/mol
[3]; 232.57 K, Crystal
  molar heat capacity at constant pressure: 342.7 ± 4.3 J/K/mol
[3]; 235.47 K, Crystal
  molar heat capacity at constant pressure: 347.41 ± 4.4 J/K/mol
[3]; 238.34 K, Crystal
  molar heat capacity at constant pressure: 352.35 ± 4.4 J/K/mol
[3]; 241.19 K, Crystal
  molar heat capacity at constant pressure: 357.3 ± 4.5 J/K/mol
[3]; 244.03 K, Crystal
  molar heat capacity at constant pressure: 362.39 ± 4.5 J/K/mol
[3]; 246.84 K, Crystal
  molar heat capacity at constant pressure: 368.11 ± 4.5 J/K/mol
[3]; 249.63 K, Crystal
  molar heat capacity at constant pressure: 374.08 ± 4.6 J/K/mol
[3]; 252.4 K, Crystal
  molar heat capacity at constant pressure: 380.86 ± 4.7 J/K/mol
[3]; 255.15 K, Crystal
  molar heat capacity at constant pressure: 387.34 ± 4.7 J/K/mol
[3]; 257.88 K, Crystal
  molar heat capacity at constant pressure: 398.08 ± 4.8 J/K/mol
[3]; 260.57 K, Crystal
  molar heat capacity at constant pressure: 413.23 ± 4.9 J/K/mol
[3]; 277.28 K, Liquid
  molar heat capacity at constant pressure: 486.51 ± 2.8 J/K/mol
[3]; 279.73 K, Liquid
  molar heat capacity at constant pressure: 487.34 ± 2.8 J/K/mol
[3]; 282.18 K, Liquid
  molar heat capacity at constant pressure: 488.17 ± 2.8 J/K/mol
[3]; 288.64 K, Liquid
  molar heat capacity at constant pressure: 490.72 ± 2.8 J/K/mol
[3]; 291.29 K, Liquid
  molar heat capacity at constant pressure: 492.03 ± 2.8 J/K/mol
[3]; 293.93 K, Liquid
  molar heat capacity at constant pressure: 493 ± 2.8 J/K/mol
[3]; 296.56 K, Liquid
  molar heat capacity at constant pressure: 494.67 ± 2.8 J/K/mol
[3]; 299.2 K, Liquid
  molar heat capacity at constant pressure: 496 ± 2.8 J/K/mol
[3]; 301.82 K, Liquid
  molar heat capacity at constant pressure: 497.42 ± 2.8 J/K/mol
[3]; 304.44 K, Liquid
  molar heat capacity at constant pressure: 498.94 ± 2.8 J/K/mol
[3]; 307.06 K, Liquid
  molar heat capacity at constant pressure: 500.72 ± 2.8 J/K/mol
[3]; 309.67 K, Liquid
  molar heat capacity at constant pressure: 502.48 ± 2.8 J/K/mol
[3]; 312.27 K, Liquid
  molar heat capacity at constant pressure: 503.98 ± 2.8 J/K/mol
[3]; 314.87 K, Liquid
  molar heat capacity at constant pressure: 505.99 ± 2.8 J/K/mol
[3]; 317.47 K, Liquid
  molar heat capacity at constant pressure: 507.58 ± 2.8 J/K/mol
[3]; 320.06 K, Liquid
  molar heat capacity at constant pressure: 509.22 ± 2.8 J/K/mol
